These compounds were tested against CDK12 complexed with Cyclin K (Homo sapiens (Human), UniProt Q9NYV4) (assay: CDK enzymatic assay (HTRF, LANCE Ultra kinase assay)). Conditions: 60 minutes pre-incubation, 1 mM ATP.
Assay type: biochemical
Procedure: The following activity of the CDK enzymes in complex with their respective cyclins we assayed: CDK1 complexed with Cyclin B1; CDK2 complexed with Cyclin E1; CDK4 complexed with Cyclin D1; CDK6 complexed with Cyclin D1; CDK6 complexed with Cyclin D3; CDK9 complexed with Cyclin T1; CDK7 complexed with Cyclin H/MAT1; CDK2 complexed with Cyclin A2; CDK5 complexed with p35; CDK12 complexed with Cyclin K; CDK13 complexed with Cyclin K. These in vitro enzyme activity are assayed using homogeneous time-resolved energy transfer (HTRF), which measures phosphorylation of a peptide substrate. The LANCE® Ultra kinase assay (PerkinElmer) uses a ULight™-labeled EIF4E-binding protein 1 (THR37/46) peptide (DYSTTPGGTLFSTTPGTRI) (SEQ ID NO: 1) substrate and a Europium-labeled anti-phospho-4E-BP1 antibody (CDK2, CDK1, CDK4, CDK6, CDK9, CDK12, CDK13) or ULight™-labeled Myelin Basic Protein peptide (VTPRTPPP) (SEQ ID NO: 2) substrate and a Europium-labeled anti-phospho-MBP antibody (CDK7). Each CDK enzyme activity assays utilized human CDK co-expressed as N-terminal GST-tagged protein with its full length cyclin partner using a baculovirus expression system.
Enzyme was pre-incubated with compounds for 30 minutes (CDK1,2,4,6,9) or 60 minutes (CDK7, CDK12, CDK13) prior to addition of ATP and Ulight-peptide (1 mM and 50 nM final, respectively), in assay buffer containing 50 mM HEPES pH 7.5, 1 mM EGTA, 10 mM MgCl2, 2 mM DTT, 0.05 mg/mL BSA, and 0.01% Tween 20.
The reaction was then incubated for 60-90 minutes at room temperature. The reactions were stopped by the addition of EDTA and Europium labeled antibody, for a final concentration of 15 mM and 1.0-1.5 nM, respectively. HTRF signals were read after 15-120 minutes. A ratio of fluorescence transferred to the labeled substrate (665 nm) relative to fluorescence of the Europium donor (620 nm) represents the extent of phosphorylation. Ratios for treated wells were normalized to DMSO only (100% activity) and no enzyme (0% activity) controls. Normalized data was analyzed using a three or four parameter dose response curve to determine IC50 for each compound and are shown in Table A. Control reference inhibitors were included on each plate.

CDK12 complexed with Cyclin K, sequence (Q9NYV4 whole entry): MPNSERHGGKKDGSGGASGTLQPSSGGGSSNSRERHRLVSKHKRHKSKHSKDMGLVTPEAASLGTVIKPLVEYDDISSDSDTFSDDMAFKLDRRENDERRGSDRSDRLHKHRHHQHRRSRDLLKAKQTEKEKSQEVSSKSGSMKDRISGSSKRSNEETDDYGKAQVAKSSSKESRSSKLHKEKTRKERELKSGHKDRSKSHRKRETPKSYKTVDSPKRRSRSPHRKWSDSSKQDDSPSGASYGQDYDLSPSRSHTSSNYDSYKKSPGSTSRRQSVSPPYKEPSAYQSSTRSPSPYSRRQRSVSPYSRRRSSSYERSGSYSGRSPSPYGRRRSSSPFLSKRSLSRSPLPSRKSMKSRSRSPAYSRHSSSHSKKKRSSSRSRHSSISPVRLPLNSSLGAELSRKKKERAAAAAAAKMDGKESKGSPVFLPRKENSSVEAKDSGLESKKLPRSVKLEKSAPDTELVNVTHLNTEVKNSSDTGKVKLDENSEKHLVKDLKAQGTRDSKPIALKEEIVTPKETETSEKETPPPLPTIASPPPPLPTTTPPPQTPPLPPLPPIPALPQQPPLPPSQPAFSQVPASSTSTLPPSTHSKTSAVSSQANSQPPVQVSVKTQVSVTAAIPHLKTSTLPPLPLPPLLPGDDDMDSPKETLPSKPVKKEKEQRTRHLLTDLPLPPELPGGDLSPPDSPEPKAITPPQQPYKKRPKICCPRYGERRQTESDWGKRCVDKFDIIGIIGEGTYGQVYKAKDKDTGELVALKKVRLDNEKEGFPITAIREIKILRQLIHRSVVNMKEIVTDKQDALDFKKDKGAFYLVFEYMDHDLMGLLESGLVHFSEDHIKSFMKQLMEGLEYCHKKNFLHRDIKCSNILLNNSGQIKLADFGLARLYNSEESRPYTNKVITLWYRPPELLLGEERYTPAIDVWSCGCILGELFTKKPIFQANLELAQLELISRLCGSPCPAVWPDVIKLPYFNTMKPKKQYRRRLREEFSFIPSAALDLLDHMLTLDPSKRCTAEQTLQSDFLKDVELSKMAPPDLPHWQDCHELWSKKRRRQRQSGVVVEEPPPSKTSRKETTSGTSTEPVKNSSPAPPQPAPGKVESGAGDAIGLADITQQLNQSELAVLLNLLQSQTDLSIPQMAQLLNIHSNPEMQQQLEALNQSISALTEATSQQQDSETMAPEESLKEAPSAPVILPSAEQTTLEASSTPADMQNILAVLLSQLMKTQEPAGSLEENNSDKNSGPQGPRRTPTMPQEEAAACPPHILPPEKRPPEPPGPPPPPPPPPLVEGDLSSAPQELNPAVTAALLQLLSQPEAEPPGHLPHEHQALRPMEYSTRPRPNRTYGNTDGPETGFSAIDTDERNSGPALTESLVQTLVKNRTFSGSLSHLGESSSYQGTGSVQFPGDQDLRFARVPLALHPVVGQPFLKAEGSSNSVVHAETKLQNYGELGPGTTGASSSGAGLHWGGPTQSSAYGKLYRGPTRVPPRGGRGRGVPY
CDK12 complexed with Cyclin K, sequence (O75909 whole entry partner): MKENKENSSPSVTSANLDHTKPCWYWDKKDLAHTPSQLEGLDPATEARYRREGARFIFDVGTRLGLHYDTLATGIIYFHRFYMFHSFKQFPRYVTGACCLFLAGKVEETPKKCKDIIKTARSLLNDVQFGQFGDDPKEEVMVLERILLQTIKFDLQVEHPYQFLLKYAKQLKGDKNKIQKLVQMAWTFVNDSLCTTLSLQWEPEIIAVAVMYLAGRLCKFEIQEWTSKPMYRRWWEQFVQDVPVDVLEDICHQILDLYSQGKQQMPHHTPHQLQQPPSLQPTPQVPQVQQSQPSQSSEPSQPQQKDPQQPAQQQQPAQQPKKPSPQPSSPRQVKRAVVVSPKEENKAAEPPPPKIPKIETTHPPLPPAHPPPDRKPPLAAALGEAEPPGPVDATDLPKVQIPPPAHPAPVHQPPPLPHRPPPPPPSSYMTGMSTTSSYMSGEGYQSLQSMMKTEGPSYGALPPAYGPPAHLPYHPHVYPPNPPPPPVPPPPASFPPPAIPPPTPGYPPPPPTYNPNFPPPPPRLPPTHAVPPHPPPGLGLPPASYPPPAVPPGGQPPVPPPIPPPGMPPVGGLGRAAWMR

IC50, 50 to 500 nM:
N#Cc1cnc2c(c1)ncn2[C@H]1CCC[C@@H](Nc2ncc(-c3cn[nH]c3)c(-c3cnn(CC(F)F)c3)n2)C1 [Example 57, 3-((1S,3R)-3-((4-(1-(2,2-Difluoroethyl)-1H-pyrazol-4-yl)-5-(1H-pyrazol-4-yl)pyrimidin-2-yl)amino)cyclohexyl)-3H-imidazo[4,5-b]pyridine-6-carbonitrile]
N#Cc1cnc(N[C@@H]2CCC[C@H](n3cnc4cccnc43)C2)nc1-c1cnn2c1OCCC2 [Example 25, 2-(((1R,3S)-3-(3H-Imidazo[4,5-b]pyridin-3-yl)cyclohexyl)amino)-4-(6,7-dihydro-5H-pyrazolo[5,1-b][1,3]oxazin-3-yl)pyrimidine-5-carbonitrile]

IC50, > 500 nM:
Cn1cc(-c2cnc(N[C@@H]3CCC[C@H](n4cnc5cc(C#N)cnc54)C3)nc2-c2cnn(CC(F)F)c2)cn1 [Example 56, 3-((1S,3R)-3-((4-(1-(2,2-Difluoroethyl)-1H-pyrazol-4-yl)-5-(1-methyl-1H-pyrazol-4-yl)pyrimidin-2-yl)amino)cyclohexyl)-3H-imidazo[4,5-b]pyridine-6-caronitrile]
Cn1nccc1-c1nc(N[C@@H]2CCC[C@H](n3cnc4cccnc43)C2)ncc1C#N [Example 22, 2-(((1R,3S)-3-(3H-Imidazo[4,5-b]pyridin-3-yl)cyclohexyl)amino)-4-(1-methyl-1H-pyrazol-5-yl)pyrimidine-5-carbonitrile]

IC50, < 50 nM:
Cc1cc(F)cc2ncn([C@H]3CCC[C@@H](Nc4ncc(C#N)c(-c5cnn(CC(F)F)c5)n4)C3)c12 [Example 54, 4-(1-(2,2-Difluoroethyl)-1H-pyrazol-4-yl)-2-(((1R,3S)-3-(5-fluoro-7-methyl-1H-benzo[d]imidazol-1-yl)cyclohexyl)amino)pyrimidine-5-carbonitrile]
N#Cc1cnc(N[C@@H]2CCC[C@H](n3cnc4ccccc43)C2)nc1-c1cnn(CC(F)F)c1 [Example 3, 2-(((1R,3S)-3-(1H-Benzo[d]imidazol-1-yl)cyclohexyl)amino)-4-(1-(2,2-difluoroethyl)-1H-pyrazol-4-yl)pyrimidine-5-carbonitrile]
CN1CCN(c2cnc3c(c2)ncn3[C@H]2CCC[C@@H](Nc3ncc(C#N)c(-c4cnn(CC(F)F)c4)n3)C2)CC1 [Example 75, 4-(1-(2,2-Difluoroethyl)-1H-pyrazol-4-yl)-2-(((1R,3S)-3-(6-(4-methylpiperazin-1-yl)-3H-imidazo[4,5-b]pyridin-3-yl)cyclohexyl)amino)pyrimidine-5-carbonitrile]
N#Cc1cnc2c(c1)ncn2[C@H]1CCC[C@@H](Nc2ncc(C#N)c(-c3cnn(CC(F)(F)F)c3)n2)C1 [Example 62, 3-((1S,3R)-3-((5-Cyano-4-(1-(2,2,2-trifluoroethyl)-1H-pyrazol-4-yl)pyrimidin-2-yl)amino)cyclohexyl)-3H-imidazo[4,5-b]pyridine-6-carbonitrile]
N#Cc1cnc2c(c1)ncn2[C@H]1CCC[C@@H](Nc2ncc(C#N)c(-c3cnn(-c4ccccc4)c3)n2)C1 [Example 65, 3-((1S,3R)-3-((5-Cyano-4-(1-phenyl-1H-pyrazol-4-yl)pyrimidin-2-yl)amino)cyclohexyl)-3H-imidazo[4,5-b]pyridine-6-carbonitrile]
N#Cc1cnc(N[C@@H]2CCC[C@H](n3cnc4cccnc43)C2)nc1-c1cnn2c1CCC2 [Example 18, 2-(((1R,3S)-3-(3H-Imidazo[4,5-b]pyridin-3-yl)cyclohexyl)amino)-4-(5,6-dihydro-4H-pyrrolo[1,2-b]pyrazol-3-yl)pyrimidine-5-carbonitrile]
N#Cc1cnc2c(c1)ncn2[C@H]1CCC[C@@H](Nc2ncc(C#N)c(-c3cnn(C4CC4)c3)n2)C1 [Example 71, 3-((1S,3R)-3-((5-Cyano-4-(1-cyclopropyl-1H-pyrazol-4-yl)pyrimidin-2-yl)amino)cyclohexyl)-3H-imidazo[4,5-b]pyridine-6-carbonitrile]
N#Cc1cnc2c(c1)ncn2[C@H]1CCC[C@@H](Nc2ncc(C#N)c(-c3cnn(CC(F)F)c3)n2)C1 [9/9A, 3-((1S,3R)-3-((5-Cyano-4-(1-(2,2-difluoroethyl)-1H-pyrazol-4-yl)pyrimidin-2-yl)amino)cyclohexyl)-3H-imidazo[4,5-b]pyridine-6-carbonitrile]
N#Cc1cnc(N[C@@H]2CCC[C@H](n3cnc4cnc(Cl)c(Br)c43)C2)nc1-c1cnn(CC(F)F)c1 [Example 42, 2-(((1R,3S)-3-(7-Bromo-6-chloro-1H-imidazo[4,5-c]pyridin-1-yl)cyclohexyl)amino)-4-(1-(2,2-difluoroethyl)-1H-pyrazol-4-yl)pyrimidine-5-carbonitrile]
COC(=O)c1ccc2ncn([C@H]3CCC[C@@H](Nc4ncc(C(F)(F)F)c(-c5cnn(CC(F)F)c5)n4)C3)c2n1 [Example 5, Methyl 3-((1S,3R)-3-((4-(1-(2,2-difluoroethyl)-1H-pyrazol-4-yl)-5-(trifluoromethyl)pyrimidin-2-yl)amino)cyclohexyl)-3H-imidazo[4,5-b]pyridine-5-carboxylate]
N#Cc1cnc2c(c1)ncn2[C@H]1CCC[C@@H](Nc2ncc(C#N)c(-c3cnn(C4CNC4)c3)n2)C1 [Example 59, 3-((1S,3R)-3-((4-(1-(Azetidin-3-yl)-1H-pyrazol-4-yl)-5-cyanopyrimidin-2-yl)amino)cyclohexyl)-3H-imidazo[4,5-b]pyridine-6-carbonitrile]
N#Cc1cnc2c(c1)ncn2[C@H]1CCC[C@@H](Nc2ncc(C#N)c(-c3cnn(CC4CC4)c3)n2)C1 [Example 69, 3-((1S,3R)-3-((5-Cyano-4-(1-(cyclopropylmethyl)-1H-pyrazol-4-yl)pyrimidin-2-yl)amino)cyclohexyl)-3H-imidazo[4,5-b]pyridine-6-carbonitrile]
N#Cc1cnc2c(c1)ncn2[C@H]1CCC[C@@H](Nc2ncc(C#N)c(-c3cnn(C4COC4)c3)n2)C1 [Example 66, 3-((1S,3R)-3-((5-Cyano-4-(1-(oxetan-3-yl)-1H-pyrazol-4-yl)pyrimidin-2-yl)amino)cyclohexyl)-3H-imidazo[4,5-b]pyridine-6-carbonitrile]
N#Cc1cnc(N[C@@H]2CCC[C@H](n3cnc4cc(F)cc(Cl)c43)C2)nc1-c1cnn(CC(F)F)c1 [Example 36, 2-(((1R,3S)-3-(7-Chloro-5-fluoro-1H-benzo[d]imidazol-1-yl)cyclohexyl)amino)-4-(1-(2,2-difluoroethyl)-1H-pyrazol-4-yl)pyrimidine-5-carbonitrile]
N#Cc1cnc(N[C@@H]2CCC[C@H](n3cnc4cncc(C#N)c43)C2)nc1-c1cnn(CC(F)F)c1 [Example 31, 1-((1S,3R)-3-((5-Cyano-4-(1-(2,2-difluoroethyl)-1H-pyrazol-4-yl)pyrimidin-2-yl)amino)cyclohexyl)-1H-imidazo[4,5-c]pyridine-7-carbonitrile]
CC(C)(O)Cn1cc(-c2nc(N[C@@H]3CCC[C@H](n4cnc5cc(C#N)cnc54)C3)ncc2C#N)cn1 [Example 58, 3-((1S,3R)-3-((5-Cyano-4-(1-(2-hydroxy-2-methylpropyl)-1H-pyrazol-4-yl)pyrimidin-2-yl)amino)cyclohexyl)-3H-imidazo[4,5-b]pyridine-6-carbonitrile]
